For four molecules, IC50 results are on record in patent publication US11691986B2, “PTEFB inhibiting macrocyclic compounds” (Bayer Aktiengesellschaft, priority 2017, dated 2023).

Each structure is given as a SMILES string.

One experiment relates to HeLa-MaTu-ADR cells. The experiment is described as follows: Proliferation assay, HeLa-MaTu-ADR (crystal violet). It counts as cell-based. Particulars: Homo sapiens, 96 h, 4 days, read-out: Inhibition of HeLa-MaTu-ADR cell proliferation IC50. As for the experimental part: (§1) Cultivated tumour cells (HeLa, human cervical tumour cells, ATCC CCL-2; NCI-H460, human non-small cell lung carcinoma cells, ATCC HTB-177; DU 145, hormone-independent human prostate carcinoma cells, ATCC HTB-81; HeLa-MaTu-ADR, multidrug-resistant human cervical carcinoma cells, EPO-GmbH Berlin; Caco-2, human colorectal carcinoma cells, ATCC HTB-37; B16F10, mouse melanoma cells, ATCC CRL-6475) were plated at a density of 5,000 cells/well (DU145, HeLa-MaTu-ADR), 3,000 cells/well (NCI-H460, HeLa), 1,500 cells/well (Caco-2), or 1,000 cells/well (B16F10) in a 96-well multititer plate in 200 μL of their respective growth medium supplemented 10% fetal calf serum. After 24 hours, the cells of one plate (zero-point plate) were stained with crystal violet (see below), while the medium of the other plates was supplemented with the test substances in various concentrations (0 μM, as well as in the range of 0.0001-10 μM; the final concentration of the solvent dimethyl sulfoxide was adjusted to 0.1%) using a Hewlett-Packard HP D300 Digital Dispenser. The cells were incubated for 4 days in the presence of test substances. Cell proliferation was determined by staining the cells with crystal violet: the cells were fixed by adding 20 μl/measuring point of an 11% glutaric aldehyde solution for 15 minutes at room temperature. After three washing cycles of the fixed cells with water, the plates were dried at room temperature. The cells were stained by adding 100 μl/measuring point of a 0.1% crystal violet solution (pH 3.0). After three washing cycles of the stained cells with water, the plates were dried at room temperature. The dye was dissolved by adding 100 μl/measuring point of a 10% acetic acid solution. The extinction was determined by photometry at a wavelength of 595 nm. The change of cell number, in percent, was calculated by normalization of the measured values to the extinction values of the zero-point plate (=0%) and the extinction of the untreated (0 Wm) cells (=100%). The IC50 values (inhibitory concentration at 50% of maximal effect) were determined by means of a 4 parameter fit.

The test system of another experiment is MOLM-13 cells. The experiment is described as follows: Proliferation assay, MOLM-13 (Cell Titre-Glo). It counts as cell-based. Particulars: Homo sapiens; MOLM-13, 72-hour exposure; read-out: Inhibition of MOLM-13 cell proliferation IC50. As for the experimental part:
A2780 human ovarian carcinoma cells (ECACC #93112519) and non-adherent MOLM-13 human acute myeloid leukemia cells (DSMZ ACC 554) were seeded at a density of 3,000 cell/well (A2780) or 5,000 cells/well (MOLM-13) in a 96-well multititer plate in 150 μL of growth medium supplemented 10% fetal calf serum. After 24 hours, cell viability of one plate (zero-point plate) was determined with the Cell Titre-Glo Luminescent Cell Viability Assay (Promega), while the medium of the other plates was supplemented with the test substances in various concentrations (0 μM, as well as in the range of 0.0001-10 μM; the final concentration of the solvent dimethyl sulfoxide was adjusted to 0.1%) using a Hewlett-Packard HP D300 Digital Dispenser. Cell viability was assessed after 72-hour exposure with the Cell Titre-Glo Luminescent Cell Viability Assay (Promega). IC50 values (inhibitory concentration at 50% of maximal effect) were determined by means of a 4 parameter fit on measurement data which were normalized to vehicle (DMSO) treated cells (=100%) and measurement readings taken immediately before compound exposure (=0%).

The next experiment has as its target T1, CDK2/CycE (Homo sapiens, UniProt P24941).
T1 construct: GST; purchased ProQinase GmbH (Freiburg, Germany); host or cells: insect cells (Sf9)
The experiment is described as follows: CDK2/CycE high ATP kinase assay (TR-FRET). The settings on record: 2 mM ATP, Method 2b. The format is biochemical. As for the experimental part: 2b. CDK2/CycE High ATP Kinase Assay
CDK2/CycE-inhibitory activity of compounds of the present invention at 2 mM adenosine-tri-phosphate (ATP) was quantified employing the CDK2/CycE TR-FRET (TR-FRET=Time Resolved Fluorescence Energy Transfer) assay as described in the following paragraphs.
Recombinant fusion proteins of GST and human CDK2 and of GST and human CycE, expressed in insect cells (Sf9) and purified by Glutathion-Sepharose affinity chromatography, were purchase from ProQinase GmbH (Freiburg, Germany). As substrate for the kinase reaction biotinylated peptide biotin-Ttds-YISPLKSPYKISEG (C-terminus in amid form) was used which can be purchased e.g. form the company JERINI peptide technologies (Berlin, Germany).
For the assay 50 nl of a 100 fold concentrated solution of the test compound in DMSO was pipetted into either a black low volume 384 well microtiter plate or a black 1536 well microtiter plate (both Greiner Bio-One, Frickenhausen, Germany), 2 μl of a solution of CDK2/CycE in aqueous assay buffer [50 mM Tris/HCl pH 8.0, 10 mM MgCl2, 1.0 mM dithiothreitol, 0.1 mM sodium ortho-vanadate, 0.01% (v/v) Nonidet-P40 (Sigma)] were added and the mixture was incubated for 15 min at 22° C. to allow pre-binding of the test compounds to the enzyme before the start of the kinase reaction. […] The concentration of CDK2/CycE was adjusted depending of the activity of the enzyme lot and was chosen appropriate to have the assay in the linear range, typical concentrations were about 10 ng/ml. The reaction was stopped by the addition of 3 μl of a solution of TR-FRET detection reagents (0.333 μM streptavidine-XL665 [Cisbio Bioassays, Codolet, France] and 1.67 nM anti-RB(pSer807/pSer811)-antibody from BD Pharmingen [#558389] and 2 nM LANCE EU-W1024 labeled anti-mouse IgG antibody [Perkin-Elmer, product no. AD0077, as an alternative a Terbium-cryptate-labeled anti-mouse IgG antibody from Cisbio Bioassays can be used]) in an aqueous EDTA-solution (167 mM EDTA, 0.2% (w/v) bovine serum albumin in 100 mM HEPES pH 7.5).
The resulting mixture was incubated 1 h at 22° C. to allow the formation of complex between the phosphorylated biotinylated peptide and the detection reagents. Subsequently the amount of phosphorylated substrate was evaluated by measurement of the resonance energy transfer from the Eu-chelate to the streptavidine-XL. Therefore, the fluorescence emissions at 620 nm and 665 nm after excitation at 350 nm was measured in a TR-FRET reader, e.g. a Pherastar (BMG Labtechnologies, Offenburg, Germany) or a Viewlux (Perkin-Elmer). The ratio of the emissions at 665 nm and at […] was taken as the measure for the amount of phosphorylated substrate. The data were normalised (enzyme reaction without inhibitor=0% inhibition, all other assay components but no enzyme=100% inhibition).
A general note: Time-resolved FRET reads energy transfer from a long-lived donor to a nearby acceptor.

For a further experiment, the system named is HeLa cells. The experiment is described as follows: Proliferation assay, HeLa (crystal violet). The format is cell-based. The settings on record: Homo sapiens, 96 h, 4 days, read-out: Inhibition of HeLa cell proliferation IC50. The procedure:
as §1

For `CC(C)(C)OC(=O)N=S(C)(=O)Cc1cc2cc(c1)OCCCCNc1cc(ccc1F)-c1nc(ncc1F)N2` (racemic) [Example 1, (rac)-tert-butyl [{[3,20-difluoro-13-oxa-5,7,18,25-tetraazatetracyclo[17.3.1.1^2,6.1^8,12]pentacosa-1(23),2(25),3,5,8(24),9,11,19,21-nonaen-10-yl]methyl}(methyl)oxido-λ^6-sulfanylidene]carbamate], the IC50 in the experiment with HeLa-MaTu-ADR cells amounted to 46 nM; in the experiment on MOLM-13 cells, 7.1 nM; on CDK2/CycE, 855 nM; in the experiment on HeLa cells it was 40 nM.

With `CS(=N)(=O)Cc1cc2cc(c1)OCCCCNc1cc(ccc1F)-c1nc(ncc1F)N2` (racemic) [Example 2, (rac)-3,20-difluoro-10-[(S-methylsulfonimidoyl)methyl]-13-oxa-5,7,18,25-tetraazatetracyclo[17.3.1.1^2,6.1^8,12]pentacosa-1(23),2(25),3,5,8(24),9,11,19,21-nonaene], the IC50 is 5.3 nM in the experiment with HeLa-MaTu-ADR cells, 2 nM in the experiment on MOLM-13 cells, 155 nM against CDK2/CycE and 4.4 nM in the experiment with HeLa cells.

With `CS(=N)(=O)Cc1cc2cc(c1)OCCCNc1cc(ccc1F)-c1nc(ncc1F)N2` (racemic) [Example 3, (rac)-3,19-difluoro-10-[(S-methylsulfonimidoyl)methyl]-13-oxa-5,7,17,24-tetraazatetracyclo[16.3.1.1^2,6.1^8,12]tetracosa-1(22),2(24),3,5,8(23),9,11,18,20-nonaene], the IC50 with HeLa-MaTu-ADR cells came to 23 nM; in the experiment with MOLM-13 cells, 5.8 nM; against CDK2/CycE, 829 nM; in the experiment on HeLa cells, 15 nM.

As for `CC1CCCNc2cc(ccc2F)-c2nc(ncc2F)Nc2cc(CS(C)(=O)=O)cc(c2)O1` (racemic) [Example 8, (rac)-3,20-difluoro-14-methyl-10-[(methylsulfonyl)methyl]-13-oxa-5,7,18,25-tetraazatetracyclo[17.3.1.1^2,6.1^8,12]pentacosa-1(23),2(25),3,5,8(24),9,11,19,21-nonaene], the IC50 against CDK2/CycE was found to be 464 nM.
